Measured values from patent publication US20050079604A1, “Method for improving functionality of tissue constructs” (priority 2001, published 2005).

Assays:
[1] = tested on: reconstructed human vascular media (RHVM); assay: Contraction of RHVM rings in response to cumulative doses of histamine (myograph, isometric tension); assay type: cell-based; details: 21 days of maturation, FIG. 9
Procedure: (§1) Reconstructed human vascular media (RHVM) were prepared for the control tissue construct (not aligned) as described in Example I. The RHVM used for this example were treated as follow: RHVM cultured in medium described above represent the control condition (non-treated RHVM) and RHVM supplemented with cell proliferation inhibitors, heparin or olomoucine (treated RHVM).
To assess the contractile function of RHVM which were treated or not (control condition), RHVM rings of 5-7 mm in length were removed from the tubular support used for culture after 21 days of maturation. Rings were mounted in a myograph and challenged in the presence of cumulative doses of histamine, a vasoactive agent. Isometric tension generated by RHVM contraction was directly recorded via a force transducer (Kilster-Morse, DSG BE4).

[2] = tested on: smooth muscle cells present in reconstructed human vascular media; assay: Immunolabeled differentiation markers of smooth muscle cells in RHVM; assay type: cell-based; details: FIG. 10
Procedure: as §1

In the case of heparin, the “contraction of RHVM cultured with the cell proliferation inhibitor vs control RHVM” value ([1]; higher doses of histamine, 10^−5 and 10^−4 M) is reported as “significantly greater contraction”, the “contraction of RHVM cultured with the cell proliferation inhibitor vs non-treated RHVM” value ([1]; low dose of histamine (10^−6 M)) is reported as “no significant difference of contraction” and the “expression of differentiation markers in cells cultured with the inhibitor vs without” value [2] is reported as “increased”.
